For orientation: Ki means a dissociation constant, usually derived from enzyme kinetics or from competition with a known ligand. What is called IC50 is the concentration that gives 50% inhibition.

The results in this text go back to patent US20120022024A1, “ANTI-BACTERIAL COMPOSITIONS AND METHODS INCLUDING TARGETING VIRULENCE FACTORS OF STAPHYLOCOCCUS AUREUS” (priority 2009, published 2012).

Structures can show the parent of a compound that is named as a salt. Where two headings read alike, the source gives them in different places.

Test [1] deals with T1, human squalene synthase (hSQS) (Homo sapiens, UniProt P37268).
T1 construct: a double truncated protein lacking residues 31 at the N-terminus and 46 at the C-terminus; six-histidine tag (pET-28a) (N); made in house; host or cells: E. coli BL21 (DE3) RP
T1 sequence (P37268 31-370 limits assumed): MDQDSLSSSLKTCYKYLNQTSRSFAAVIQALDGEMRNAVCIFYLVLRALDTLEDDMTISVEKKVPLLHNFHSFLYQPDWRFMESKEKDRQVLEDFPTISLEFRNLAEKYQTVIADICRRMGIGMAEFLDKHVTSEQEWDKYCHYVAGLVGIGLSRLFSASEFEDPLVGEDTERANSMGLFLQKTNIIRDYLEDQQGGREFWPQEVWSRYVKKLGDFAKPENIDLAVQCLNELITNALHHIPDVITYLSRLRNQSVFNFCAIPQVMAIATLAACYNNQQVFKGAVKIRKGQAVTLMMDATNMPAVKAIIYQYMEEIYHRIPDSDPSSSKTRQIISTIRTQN
Put plainly: Human SQS enzyme inhibition assay. Particulars: for CrtM/hSQS selectivity: IC50(hSQS)/IC50(CrtM); for relative CrtM/hSQS selectivity: selectivity of compound/selectivity of 1; for IC50: Table 8; for pIC50 (CrtM) − pIC50 (hSQS): experimental data. It is filed as biochemical. How it is done:
The corresponding amplified insert was initially cloned in the vector pGEMT® (Promega). Plasmid was digested with the endonucleases NdeI and BamHI, and the resulting fragment was cloned into the bacterial expression vector pET-28a to give pET28a-HsSQS which was used to transform E. coli BL21 (DE3) RP strain (Novagen) for overexpression.
Bacteria expressing the constructs were cultured in Luria-Bertani medium supplemented with kanamycin (30 μg/ml) and chloramphenicol (34 μg/ml) at 37° C., until the cells reached an OD of 0.4 at 600 nm, and were then induced at 37° C. for 4 h by incubation with 1 mM isopropyl-1-thio-β-D-galactopyranoside. Cells were harvested by centrifugation (10 min, 4000 rpm) and resuspended in 10 ml of lysis/elution buffer (20 mM […], pH 7.4, 10 mM CHAPS, 2 mM MgCl2, 10% glycerol, 10 mM—mercaptoethanol, 500 mM NaCl, 10 mM imidazole, and a protease inhibitor cocktail (Roche), disrupted by sonication, and centrifuged at 16,000 rpm for 30 min. The supernatant ([…]) was then applied to a HiTrap Nickel-Chelating HP column (Amersham Biosciences). Enzyme purification was performed according to the manufacturer's instructions using a Pharmacia FPLC system. Unbound protein was washed off with 50 mM imidazole, then the His6-HsSQS was eluted with 1M imidazole.
SQS activity was based on measuring the conversion of [3H]FPP to [3H]squalene. […] The region of the squalene band was scraped and immersed in Hydrofluor liquid scintillation fluid, and assayed for radioactivity. IC50 values were calculated from the hyperbolic plot of percent of inhibition versus inhibitor concentration, using GraphPad PRISM®.

Test [2] addresses S. aureus CrtM (dehydrosqualene synthase) (Staphylococcus aureus, UniProt A9JQL9). Briefly: CrtM enzyme inhibition assay.
In test [3] the test system is staphyloxanthin (STX) biosynthesis in S. aureus. Put plainly: Staphyloxanthin biosynthesis inhibition assay. Format: cell-based, Staphylococcus aureus. As for the experimental part: The question next arises: how potent are these compounds in inhibiting STX biosynthesis in S. aureus? We thus treated S. aureus bacteria with serially diluted compounds at 37° C. for 3 days, after which the STX pigment was extracted with methanol. Optical densities were measured at 450 nm and IC50 values for inhibition of pigment formation for each compound were calculated using a standard dose-response curve. The rank ordered IC50 values of the 38 compounds investigated are shown in Table 7 and dose-response curves of representative compounds are shown in FIG. 2.
The S. aureus strain used was the WT clinical isolate (Pig1) (4). S. aureus was cultured in THB (1 mL) in the presence of inhibitor compounds for 72 h, in duplicate. Cells were then centrifuged and washed twice with PBS. STX was extracted with MeOH and the O.D. was determined at 450 nm using a Perkin Elmer MBA 2000 (Norwalk, Conn.) spectrophotometer.

[4] abbreviates: read-out: CrtM enzyme experimental activity IC50, Table 5.
[5] abbreviates: Staphylococcus aureus, 72 h, read-out: Staphyloxanthin IC50.
The mark [6] stands for this setting: read-out: CrtM IC50 values, Table 4.
[7] abbreviates: Table 7, S. aureus, 37° C., 3 days, read-out: Staphyloxanthin IC50.
Where [8] appears, read: Staphylococcus aureus, read-out: IC50(STX).

Sequence of S. aureus CrtM (dehydrosqualene synthase) (A9JQL9 whole entry): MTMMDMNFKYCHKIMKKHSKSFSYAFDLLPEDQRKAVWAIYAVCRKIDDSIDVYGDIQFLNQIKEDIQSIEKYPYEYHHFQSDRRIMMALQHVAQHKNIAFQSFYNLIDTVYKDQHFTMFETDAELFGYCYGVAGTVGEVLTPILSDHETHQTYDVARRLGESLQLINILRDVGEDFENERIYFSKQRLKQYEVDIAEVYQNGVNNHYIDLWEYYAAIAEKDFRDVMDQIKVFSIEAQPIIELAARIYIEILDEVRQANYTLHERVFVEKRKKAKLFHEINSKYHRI

As for `CP(=O)([O-])C(CCCc1ccc(-c2ccccc2)cc1)P(=O)([O-])[O-].[K+].[K+].[K+]` (centres unmarked) [Compound 4], in test [1], the CrtM/hSQS selectivity was found to be 0.014 and the “relative CrtM/hSQS selectivity” value worked out at 4.7.

In test [2], `O=P([O-])([O-])C(CCCc1ccc(-c2ccc(C(F)(F)F)cc2)cc1)P(=O)([O-])[O-].[K+].[K+].[K+].[K+]` [Compound 3, 4-[4-(4-Trifluoromethylphenyl)phenyl)]butyldiphosphonic acid dipotassium salt] showed an inhibitory constant (Ki) of around 0.0005 µM. The IC50 in test [2] (setting [4]) stood at 0.18 µM; in test [2] (read-out: IC50 against CrtM), 0.2 µM; in test [3] (setting [5]), 1.1 µM; in test [1] it was 0.003 µM.

Take “1-Phosphono-4-[3-(3,4-dichlorophenoxy)phenyl]butylsulfonic acid tripotassium salt [Compound 31]”: the “CrtM enzyme experimental activity pIC50” value in test [2] (Table 5) turned out to be 5.65. For the same compound, the values for the IC50 in test [2] (setting [6]), in test [2] (setting [4]) and in test [3] (setting [7]) were 2.2 µM, 2.2 µM and 0.011 µM, respectively.

`O=C(CP(=O)(O)O)OCCCc1cccc(Oc2ccccc2)c1` [compound 887]: the IC50 in test [2] was 1190 µM; in test [3] (setting [8]), 1.5 µM.

For `O=P(O)(O)C(CCCc1ccc(-c2ccc(F)cc2F)cc1)S(=O)(=O)O` (centres unmarked) [Compound 10, 1-Phosphono-4-[4-(2,4-difluorophenyl)phenyl]butylsulfonic acid tripotassium salt], the IC50 in test [2] (setting [4]) was found to be 9.1 µM; in test [3] (setting [5]) it was 0.18 µM.

With “1-Phosphono-4-[3-(4-fluorophenoxy)-6-fluoro-phenyl]butylsulfonic acid tripotassium salt [Compound 35]”, the “CrtM enzyme experimental activity pIC50” value in test [2] (Table 5) stood at 5.68. The figures for the IC50 in test [2] (setting [6]), in test [2] (setting [4]) and in test [3] (setting [7]) were 2.1 µM, 2.1 µM and 0.059 µM, respectively.

In the case of “1-Phosphono-4-[3-(3,4-difluorophenoxy)phenyl]butylsulfonic acid tripotassium salt [Compound 30]”, the “CrtM enzyme experimental activity pIC50” value in test [2] (Table 5) is recorded as 5.76. For the same compound, the IC50 in test [2] (setting [6]) is 1.7 µM; in test [2] (setting [4]) it was 1.7 µM; in test [3] (setting [7]), 0.11 µM.

Regarding “1-Phosphono-4-[3-(4-chlorophenoxy)phenyl]butylsulfonic acid tripotassium salt [Compound 24]”, in test [2] (Table 5), the “CrtM enzyme experimental activity pIC50” value came out at 5.6. For the same compound, the IC50 in test [2] (setting [6]) came to 2.5 µM; in test [2] (setting [4]) it was 2.5 µM; in test [3] (setting [7]), 0.039 µM.

In the case of `O=P([O-])([O-])C(CCCc1cccc(Oc2ccc(F)cc2)c1)S(=O)(=O)[O-].[K+].[K+].[K+]` (centres unmarked) [Compound 5, 1-Phosphono-4-[3-(4-fluorophenoxy)phenyl]butylsulfonic acid tripotassium salt], the results for the IC50 in test [2], in test [2] (read-out: IC50 against CrtM) and in test [3] (setting [5]) were 2.34 µM, 2.3 µM and 0.052 µM, respectively. This compound also came in with a Ki in test [2] of around 0.005 µM. Also, the “as active as 1 in CrtM inhibition” value in test [2] (fold more active, versus 1) is recorded as around 4 ×.

Regarding `O=P([O-])([O-])C(CCCc1ccc(-c2ccc(C(F)(F)F)cc2)cc1)P(=O)([O-])[O-].[K+].[K+].[K+].[K+]` [Compound 3], in test [2] (Table 5), the “CrtM enzyme experimental activity pIC50” value is given as 6.74. In test [1], the CrtM/hSQS selectivity came to 0.014, the “pIC50 (CrtM) − pIC50 (hSQS)” value is given as −1.86 and the “relative CrtM/hSQS selectivity” value is on record as 4.8.

As for `O=P(O)(O)C(CCCc1ccc(-c2ccccc2)cc1)P(=O)(O)O` [Compound 2, 4-(4-Biphenyl)butyldiphosphonic acid tetrapotassium salt], the IC50 in test [2] came out at 0.48 µM; in test [2] (read-out: IC50 against CrtM), 0.5 µM; in test [3] (setting [5]), 2.2 µM. Besides, the Ki in test [2] is around 0.001 µM.

With “1-Phosphono-4-[3-(2-trifluoromethylphenoxy)phenyl]butylsulfonic acid tripotassium salt [Compound 23]”, the “CrtM enzyme experimental activity pIC50” value in test [2] (Table 5) is given as 4.27. In addition, the concentration for half-maximal inhibition (IC50) in test [2] (setting [6]) was found to be 53.7 µM; in test [2] (setting [4]) it was 53.7 µM; in test [3] (setting [7]), 0.46 µM.

As for `CC(C)(C(=O)NCCCc1cccc(Oc2ccccc2)c1)P(=O)(O)O` [compound 847], the IC50 in test [2] was 204 µM; in test [3] (setting [8]) it was above 500 µM.

As for “1-Phosphono-4-[3-[4-(furan-2-yl)phenoxy]phenyl]butylsulfonic acid tripotassium salt [Compound 29]”, in test [2] (Table 5), the “CrtM enzyme experimental activity pIC50” value came out at 4.58. Besides, the values for the IC50 in test [2] (setting [6]), in test [2] (setting [4]) and in test [3] (setting [7]) were 26.3 µM, 26.3 µM and 1.1 µM, respectively.

As for `O=P([O-])([O-])C(Cc1cccc(Oc2ccccc2)c1)S(=O)(=O)[O-].[K+].[K+].[K+]` (centres unmarked) [Compound 14, 1-Phosphono-2-(3-phenoxyphenyl)ethylsulfonic acid tripotassium salt], in test [2] (setting [4]), the IC50 amounted to 1700 µM. Besides, the IC50 in test [3] (setting [5]) worked out at 33.9 µM. For the same compound, in test [1], the CrtM/hSQS selectivity came to 0.0022, the IC50 turned out to be 3.7 µM, the “pIC50 (CrtM) − pIC50 (hSQS)” value is listed as −2.66 and the “relative CrtM/hSQS selectivity” value was 0.8.

As for `Cc1ccc(-c2ccc(CCCN(O)C(=O)CP(=O)(O)O)cc2)cc1` [compound 826], the 50% inhibitory concentration (IC50) in test [2] is above 1500 µM; in test [3] (setting [8]) it was 4.11 µM.

As to “1-Phosphono-4-[3-(3,5-difluorophenoxy)phenyl]butylsulfonic acid tripotassium salt [Compound 33]”, the “CrtM enzyme experimental activity pIC50” value in test [2] (Table 5) is given as 5.34. Also, the IC50 worked out at 4.6 µM in test [2] (setting [6]), 4.6 µM in test [2] (setting [4]) and 0.015 µM in test [3] (setting [7]).

Turning to `CCCOc1cccc(-c2ccc(CCCC(P(=O)(O)O)S(=O)(=O)O)cc2)c1` (centres unmarked) [Compound 13, 1-Phosphono-4-[4-(3-propoxyphenyl)phenyl]butylsulfonic acid tripotassium salt], the values for the IC50 in test [2] (setting [4]) and in test [3] (setting [5]) were 123 µM and 0.49 µM, respectively.

As for `O=P([O-])([O-])C(CCc1cccc(Oc2ccccc2)c1)S(=O)(=O)[O-].[K+].[K+].[K+]` (centres unmarked) [Compound 15, 1-Phosphono-3-(3-phenoxyphenyl)propylsulfonic acid tripotassium salt], the IC50 in test [2] is above 500 µM; in test [2] (setting [4]), 500 µM; in test [3] (setting [5]), 20.4 µM; in test [1], 0.55 µM. For the same compound, the “CrtM enzyme experimental activity pIC50” value in test [2] (Table 5) was determined as 3.3. In addition, in test [1], the CrtM/hSQS selectivity is on record as 0.0011. Moreover, the “pIC50 (CrtM) − pIC50 (hSQS)” value in test [1] is listed as −2.96. The “relative CrtM/hSQS selectivity” value in test [1] came out at 0.4.

In the case of `O=P(O)(O)C(CCCc1cccc(Cc2ccccc2)c1)S(=O)(=O)O` (centres unmarked) [Compound 17, 1-Phosphono-4-(3-benzylphenyl)butylsulfonic acid tripotassium salt], the IC50 in test [2] (setting [4]) was found to be 20.4 µM; in test [3] (setting [5]), 0.17 µM.
